The record followed here is PMC4725965, “Comprehensive Structural Characterization of the Bacterial Homospermidine Synthase–an Essential Enzyme of the Polyamine Metabolism” (Scientific Reports, 2016).

Test [1] has as its target T1, BvHSS (Blastochloris viridis, UniProt O32323, H296S).
T1 construct: gene hss; full-length BvHSS from pETM14, E. coli BL21 (DE3); N-terminal 6xHis-tag cut with HRV3C protease; homodimer; active site within one subunit; domains cover residues 3-477; first four amino acids not traced
In words: X-ray crystallography. The conditions noted are these: pH 4.6. It is filed as binding.

Test [2] deals with T2, BvHSS (Blastochloris viridis, UniProt O32323, E237Q).
T2 construct: gene hss; full-length BvHSS from pETM14, E. coli BL21 (DE3); N-terminal 6xHis-tag cut with HRV3C protease; homodimer; active site within one subunit; domains cover residues 3-477; first four amino acids not traced
In words: X-ray crystallography. In kind it is binding. The conditions noted are these: co-crystal with 0.2 M AGM and 0.2 M PUT; no polyamine in active site; pH 4.6.

In test [3] the target is T3, BvHSS (Blastochloris viridis, UniProt O32323).
T3 construct: gene hss; full-length BvHSS from pETM14, E. coli BL21 (DE3); N-terminal 6xHis-tag cut with HRV3C protease; homodimer; active site within one subunit; domains cover residues 3-477; first four amino acids not traced
T3 sequence (O32323 1-477): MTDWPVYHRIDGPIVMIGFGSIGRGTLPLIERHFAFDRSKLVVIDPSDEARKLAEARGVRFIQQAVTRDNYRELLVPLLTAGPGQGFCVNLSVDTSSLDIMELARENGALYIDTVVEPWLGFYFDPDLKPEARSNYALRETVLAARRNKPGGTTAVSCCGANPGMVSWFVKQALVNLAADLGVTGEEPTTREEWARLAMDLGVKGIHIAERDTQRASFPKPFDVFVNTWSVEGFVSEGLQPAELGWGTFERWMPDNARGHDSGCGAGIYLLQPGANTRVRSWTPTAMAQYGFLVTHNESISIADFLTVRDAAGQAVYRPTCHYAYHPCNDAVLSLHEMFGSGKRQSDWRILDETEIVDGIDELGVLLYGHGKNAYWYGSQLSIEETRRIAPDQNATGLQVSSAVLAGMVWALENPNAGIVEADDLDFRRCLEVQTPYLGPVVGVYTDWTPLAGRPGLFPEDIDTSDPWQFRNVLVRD
In words: X-ray crystallography. It is filed as binding.

Test [4] deals with T3, BvHSS. The test is described as follows: X-ray crystallography. It is filed as biochemical. The conditions noted are these: DAP co-crystal soaked 300 s with 0.2 M PUT; product formed in crystal; pH 4.8; active site, subunit A; transition-close state with partial Schiff base, modelled as 37Z.
In test [5] the target is Blastochloris viridis homospermidine synthase (Blastochloris viridis) (UniProt O32323). The test is described as follows: crystal structure; hanging-drop vapour diffusion at 18 °C, reservoir 100 mM sodium acetate pH 4.6-4.8; NAD+ bound, with or without polyamines; two subunits (A and B) in the asymmetric unit.

T1 sequence (O32323 whole entry H296S, the tested form may be a part): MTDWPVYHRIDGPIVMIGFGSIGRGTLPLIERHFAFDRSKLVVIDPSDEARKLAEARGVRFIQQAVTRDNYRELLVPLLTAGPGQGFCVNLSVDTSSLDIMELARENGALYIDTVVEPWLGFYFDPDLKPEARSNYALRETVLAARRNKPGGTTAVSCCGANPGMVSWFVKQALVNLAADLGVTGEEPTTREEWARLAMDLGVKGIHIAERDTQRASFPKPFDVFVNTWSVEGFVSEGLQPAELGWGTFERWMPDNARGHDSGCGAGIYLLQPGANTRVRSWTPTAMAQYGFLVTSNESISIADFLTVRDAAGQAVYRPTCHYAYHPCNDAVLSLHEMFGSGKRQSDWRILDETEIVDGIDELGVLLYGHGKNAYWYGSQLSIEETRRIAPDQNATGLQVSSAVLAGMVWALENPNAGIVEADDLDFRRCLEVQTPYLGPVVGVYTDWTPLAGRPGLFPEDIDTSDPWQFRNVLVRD
T2 sequence (O32323 whole entry E237Q, the tested form may be a part): as the sequence (O32323 whole entry H296S, the tested form may be a part) above, with E237Q, S296H counted along it

As to `NC(=O)c1ccc[n+]([C@@H]2O[C@H](COP(=O)(O)OP(=O)(O)OC[C@H]3O[C@@H](n4cnc5c(N)ncnc54)[C@H](O)[C@@H]3O)[C@@H](O)[C@H]2O)c1` [NAD^+], the X-ray crystallography entry was “BvHSS and BvHSS variants with bound NAD^+ in complex with various polyamines” on BvHSS [1] (co-crystal with 0.2 M AGM); “BvHSS and BvHSS variants with bound NAD^+ in complex with various polyamines” on BvHSS [2]; “with bound NAD^+ (Protein Data Bank [PDB] ID: 4PLP)” at BvHSS [3] (no polyamine, pH 4.6, non-covalently bound prosthetic group).

Take `NCCCCNCCCCN` [sym-homospermidine, bis(4-aminobutyl)amine]: the X-ray crystallography result at BvHSS [4] is “transition close state of the reduction to HSP bound in subunit A”.

`N=C(N)NCCCCN` [agmatine]: the X-ray crystallography entry on BvHSS [1] (co-crystal with 0.2 M AGM, NAD+ bound, active site) was “the variant H296S was found to bind AGM within the active site”.

For the molecule `NCCCCN` [putrescine], the X-ray crystallography entry is “partial replacement of AGM with PUT (Fig. 6f)” on BvHSS [1] (AGM co-crystal soaked 300 s with 0.2 M PUT, NAD+ bound, active site, partial occupancy beside AGM, enzymatically inactive variant) and “The active site of BvHSS with bound PUT (PDB ID: 4TVB, subunit B)” at BvHSS [3] (DAP co-crystal soaked 300 s with 0.2 M PUT, NAD+ bound, pH 4.8, inner binding site, subunit B, transition-close state).

Consider `NCCCN` [1,3-diaminopropane], for which, at BvHSS [3] (co-crystal with 0.2 M DAP and 0.2 M PUT, NAD+ bound, pH 4.6, active site, second DAP at the ionic slide (pocket entrance), Table 3 misprints the PDB id as 4XQE), the X-ray crystallography entry is on record as “Two DAP molecules were found at two different positions in subunit A (PDB ID: 4XQC)”.

For orientation: stoichiometry N means the number of molecules, sites or subunits per partner or assembly. For the molecule “Blastochloris viridis homospermidine synthase (from UniProt O32323 1-477) (enzyme)”, the stoichiometry N in test [5] was 2.
